{
  "source": "patent EP0470144B1",
  "about": "“BETA-HYDROXAMATE D-ASPARTIC ACID FOR TREATMENT OF VIRAL INFECTIONS AND TUMOURS” (priority 1989, dated 1990)",
  "key": {"leucémie L1210": {"system": "leucémie L1210", "test": "Antitumour activity in the L1210 leukaemia model, survival", "type": "in vivo, souris B6D2F1/J", "conditions": "for Nombre d'animaux survivants: at 30 days", "description": "L'activité antitumorale du DAH et du LAH a été étudiée sur le modèle de leucémie L1210. Les cellules leucémiques L1210 sont maintenues par passages intrapéritonéaux dans la souris B6D2F1/J mâle. […] La durée d'observation est de 30 jours."}, "[1]": {"test": "LD50 comparison of DAH and LAH", "conditions": "in vivo"}},
  "data": [
    {"smiles": "N[C@@H](CC(=O)NO)C(=O)O", "note": "[LAH, L-aspartique acide β hydroxamate, reference compound]", "values": [
      {"measurement": "T/Cx100", "setting": "leucémie L1210; 1,5 g/kg x4/j, day 1", "value": 50, "unit": "%"},
      {"measurement": "Nombre d'animaux survivants", "setting": "leucémie L1210; 1,5 g/kg x4/j, day 1", "value": "0/5"},
      {"measurement": "T/Cx100", "setting": "leucémie L1210; 1 g/kg x4/j, days 1,2", "value": 65, "unit": "%"},
      {"measurement": "Nombre d'animaux survivants", "setting": "leucémie L1210; 1 g/kg x4/j, days 1,2", "value": "0/5"},
      {"measurement": "activité antitumorale", "setting": "leucémie L1210; lighter protocol than for DAH", "value": "on n'a pas observé d'activité antitumorale"},
      {"measurement": "toxicité", "setting": "leucémie L1210; lighter protocol, treated animals died before the control group", "value": "toxicité très importante"},
      {"measurement": "toxicité", "setting": "leucémie L1210; same dosage conditions as DAH (1 g/kg, 4 times a day, 3 days)", "value": "très toxique"},
      {"measurement": "DL 50 %", "setting": "[1]", "value": "2,5 g/kg"}
    ]}
  ]
}
